Results published in patent US20240285551A1, “A SMALL MOLECULE TNF-a INHIBITOR AND PREPARATION METHOD AND USE THEREOF” (FUDAN UNIVERSITY, priority 2021, published 2024).

Tests used:
IL-23 [1] = experiment: serum IL-23 protein by ELISA, DSS acute UC mice; format: in vivo; details: 10 mg/kg
Experimental: (§1) Except for the normal group, all other groups of mice were allowed to freely drink a 3% DSS solution which was freshly prepared and replaced the next day (wherein the 3% DSS solution was prepared by weighing 3 g of a DSS powder (from MP Biomedicals, USA with a molecular weight of 36,000 to 50,000) and fully dissolving it in 100 mL of the drinking water for the mice); whereas the normal group was given blank drinking water; the control group mice drank water normally for 7 days, while the DSS group mice drank the 3% DSS solution freely for 7 days and were administrated for 6 days from the second day DSS was given. The mice were administered by gavage once a day with a volume of 10 mL/kg, wherein the normal control group and DSS group were gavaged with a solvent of 0.5% CMC-Na (wherein a 0.5% CMC-Na solution is at a concentration of 0.5 g/100 mL, the same below), while the other groups were separately gavaged with drugs dissolved in 0.5% CMC-Na.
(§2) To investigate the effects of compounds (R)-STU104, (S)-STU104, and (±)-STU104 on the secretion of such inflammatory factors as TNF-α, IL-1β, IL-6, and IL-23 by mice of the DSS induced acute ulcerative colitis model in C57 mice, we isolated serum after blood acquisition and detected the contents of such inflammatory factors as TNF-α, IL-1β, IL-6, and IL-23 in the serum of mice using ELISA.

IL-1β [2] = experiment: colon tissue IL-1β mRNA by qPCR, DSS acute UC mice; format: in vivo; details: 10 mg/kg
Experimental: as §1
(§3) After dissection, a segment of the colon was taken from the same part of each mouse, total RNAs were extracted from tissues, and mRNA expressions of such inflammatory factors as TNF-α, IL-1β, IL-6, and IL-23 in colon tissues of the mice were detected through qPCR.

TNF-α [3] = experiment: release of the inflammatory factor TNF-α by LPS induced macrophages (RAW264.7), RT-PCR; format: cell-based; details: Mus musculus, RAW264.7, LPS 1 μg/ml, 24 hours, read-out: IC50 with respect to the release of the inflammatory factor TNF-α
Experimental: LPS (1 μg/ml) and different concentrations of (±)-STU104 or (R)-STU104 (0.1 to 50 μM) were added respectively after the cells grew to a fused state, and incubated together at 37° C. under 5% CO2 for 24 hours. A blank control group was established, and RT-PCR was employed to detect the inhibition states of TNF-α in cells by these compounds.

IL-6 [4] = experiment: serum IL-6 protein by ELISA, DSS acute UC mice; format: in vivo; details: 10 mg/kg
Experimental: as §1, §2

TNF-α [5] = experiment: colon tissue TNF-α mRNA by qPCR, DSS acute UC mice; format: in vivo; details: 10 mg/kg
Experimental: as §1, §3

IL-1β [6] = experiment: serum IL-1β protein by ELISA, DSS acute UC mice; format: in vivo; details: 10 mg/kg
Experimental: as §1

IL-6 [7] = experiment: colon tissue IL-6 mRNA by qPCR, DSS acute UC mice; format: in vivo; details: 10 mg/kg
Experimental: as §1, §3

[8] = tested on: DSS induced acute ulcerative colitis model in C57 mice; experiment: DSS induced acute ulcerative colitis in C57 mice (body weight, DAI, colon length, H&E pathology); format: in vivo; details: 10 mg/kg, gavage once a day; for DAI score inhibition ratio / body weight recovery rate: day 7
Experimental: as §1
The normal control group mice were vivacious with glossy fur, stable weight gain, and normal stools appearing elliptical or spindle shaped.
In order to further evaluate the disease development for each group of acute UC mice, we performed DAI scoring on the loose and bloody stools etc. for each mouse (see panel B1 in FIG. 3). […] As the experiment progressed, the disease became gradually worsened, with some animals experiencing severe bloody stools and significant emaciation.
(§4) After dissection, the colon of each mouse was taken and the length of the colon was measured separately.

IL-23 [9] = experiment: colon tissue IL-23 mRNA by qPCR, DSS acute UC mice; format: in vivo; details: 10 mg/kg
Experimental: as §1, §3

TNF-α [10] = experiment: serum TNF-α protein by ELISA, DSS acute UC mice; format: in vivo; details: 10 mg/kg
Experimental: as §1, §2

[11] = tested on: chronic ulcerative colitis model in IL-10 whole gene knockout mice; experiment: chronic ulcerative colitis in IL-10 whole gene knockout mice (survival, body weight, colon length, H&E pathology); format: in vivo; details: for total mortality rate: gavage once a day
Experimental: (§5) Ten C57 mice (aged 10-12 weeks, around 20 g) with an identified genotype of Wildtype were taken as the normal control group. […] The mice were administered by gavage once a day with a volume of 10 mL/kg, wherein the normal control group and DSS group were gavaged with a solvent of 0.5% CMC-Na while the other groups were separately gavaged with drugs dissolved in 0.5% CMC-Na.
as §4

IL-6 [12] = experiment: colon tissue IL-6 mRNA by qPCR, IL-10 knockout chronic UC mice; format: in vivo
Experimental: as §5, §3

TNF-α [13] = experiment: colon tissue TNF-α mRNA by qPCR, IL-10 knockout chronic UC mice; format: in vivo
Experimental: as §5, §3

IL-23 [14] = experiment: serum IL-23 protein by ELISA, IL-10 knockout chronic UC mice; format: in vivo
Experimental: as §5
(§6) To investigate the effects of (R)-STU104 on the secretion of such inflammatory factors as TNF-α, IL-1β, IL-6, and IL-23 by spontaneous IBD mice due to IL-10 knockout, we isolated serum after blood acquisition and detected the contents of such inflammatory factors as TNF-α, IL-1β, IL-6, and IL-23 in the serum of mice using ELISA.

[15] = tested on: Mnk1, MK2, and elF4E in the p38 signaling pathway; experiment: western blotting of phosphorylation of p38 signaling pathway proteins in LPS induced RAW264.7 cells; format: cell-based; details: RAW264.7, 3.125, 6.25 and 12.5 μM, LPS 500 μg/L
Excerpt: (§7) To further clarify the inhibitory mechanism of (R)-STU104 on TNF-α release, we detected the effects of (R)-STU104 on phosphorylation levels of proteins related to the p38 signaling pathway (see FIG. 2). The p38 inhibitor (SB203580) was used as a positive control, and western blotting was used to detect protein expression levels.

TNF-α [16] = experiment: serum TNF-α protein by ELISA, IL-10 knockout chronic UC mice; format: in vivo
Experimental: as §5, §6

IL-23 [17] = experiment: colon tissue IL-23 mRNA by qPCR, IL-10 knockout chronic UC mice; format: in vivo
Experimental: as §5, §3

IL-6 [18] = experiment: serum IL-6 protein by ELISA, IL-10 knockout chronic UC mice; format: in vivo
Experimental: as §5, §6

TAK1 = experiment: western blotting of TAK1 phosphorylation (upstream kinase of MKK3); format: cell-based
Excerpt: as §7

IL-1β [19] = experiment: serum IL-1β protein by ELISA, IL-10 knockout chronic UC mice; format: in vivo
Experimental: as §5, §6

IL-1β [20] = experiment: colon tissue IL-1β mRNA by qPCR, IL-10 knockout chronic UC mice; format: in vivo
Experimental: as §5, §3

## COc1ccc(C2CC(=O)c3cc(OC)cc(OC)c32)cc1 (racemic) [(±)-STU104]
IL-23 [1]
  inhibition ratio of IL-23 protein content in serum: 45.2%
IL-1β [2]
  inhibition ratio of IL-1β mRNA in colon tissues: 67.5%
TNF-α [3]
  IC50: 1270 nM
IL-6 [4]
  inhibition ratio of IL-6 protein content in serum: 49.1%
TNF-α [5]
  inhibition ratio of TNF-α mRNA in colon tissues: 55.4%
IL-1β [6]
  inhibition ratio of IL-1β protein content in serum: 68.6%
IL-6 [7]
  inhibition ratio of IL-6 mRNA in colon tissues: 56.1%
[8]
  colon length recovery rate (inhibition of colon shortening): 25.7%
  recovery rate of colon pathological sections (H&E): 48.3%
  DAI score inhibition ratio: 8.3%
  body weight recovery rate: 20.0%
IL-23 [9]
  inhibition ratio of IL-23 mRNA in colon tissues: 73.1%
TNF-α [10]
  inhibition ratio of TNF-α protein content in serum: 48.1%

## COc1ccc([C@H]2CC(=O)c3cc(OC)cc(OC)c32)cc1 [(R)-STU104, 4,6-dimethoxy-3R-(4-methoxyphenyl)-2,3-dihydro-1H-indanone]
[11]; high-dose group (10 mg/kg)
  efficiency of weight gain (body weight recovery): 19.4%
  inhibition ratio of colon shortening: 41.2%
  recovery rate of colon pathological sections (H&E): 56.7%
  total mortality rate: no deaths occurred
[11]; low-dose group (1 mg/kg)
  efficiency of weight gain (body weight recovery): 13.6%
  inhibition ratio of colon shortening: 17.7%
  recovery rate of colon pathological sections (H&E): 33.0%
  total mortality rate: 20%
[11]; medium-dose group (3 mg/kg)
  efficiency of weight gain (body weight recovery): 14.8%
  inhibition ratio of colon shortening: 29.4%
  recovery rate of colon pathological sections (H&E): 50.5%
  total mortality rate: no deaths occurred
IL-6 [12]; high dose (10 mg/kg)
  inhibition ratio of IL-6 mRNA in colon tissues: 48.6%
IL-6 [12]; low dose (1 mg/kg)
  inhibition ratio of IL-6 mRNA in colon tissues: 26.3%
IL-6 [12]; medium dose (3 mg/kg)
  inhibition ratio of IL-6 mRNA in colon tissues: 37.1%
IL-23 [1]
  inhibition ratio of IL-23 protein content in serum: 56.7%
TNF-α [13]; high dose (10 mg/kg)
  inhibition ratio of TNF-α mRNA in colon tissues: 68.5%
TNF-α [13]; low dose (1 mg/kg)
  inhibition ratio of TNF-α mRNA in colon tissues: 24.7%
TNF-α [13]; medium dose (3 mg/kg)
  inhibition ratio of TNF-α mRNA in colon tissues: 69.5%
IL-1β [2]
  inhibition ratio of IL-1β mRNA in colon tissues: 68.3%
TNF-α [3]
  IC50: 580 nM
IL-23 [14]; high dose (10 mg/kg)
  inhibition ratio of IL-23 protein content in serum: 64.4%
IL-23 [14]; low dose (1 mg/kg)
  inhibition ratio of IL-23 protein content in serum: 39.6%
IL-23 [14]; medium dose (3 mg/kg)
  inhibition ratio of IL-23 protein content in serum: 58.2%
IL-6 [4]
  inhibition ratio of IL-6 protein content in serum: 71.5%
[15]
  phosphorylation of key proteins Mnk1, MK2, and elF4E in the p38 signaling pathway: inhibiting, in a concentration dependent manner
TNF-α [16]; high dose (10 mg/kg)
  inhibition ratio of TNF-α protein content in serum: 61.9%
TNF-α [16]; low dose (1 mg/kg)
  inhibition ratio of TNF-α protein content in serum: 40.2%
TNF-α [16]; medium dose (3 mg/kg)
  inhibition ratio of TNF-α protein content in serum: 60.3%
IL-23 [17]; high dose (10 mg/kg)
  inhibition ratio of IL-23 mRNA in colon tissues: 58.2%
IL-23 [17]; low dose (1 mg/kg)
  inhibition ratio of IL-23 mRNA in colon tissues: 31.0%
IL-23 [17]; medium dose (3 mg/kg)
  inhibition ratio of IL-23 mRNA in colon tissues: 51.7%
TNF-α [5]
  inhibition ratio of TNF-α mRNA in colon tissues: 64.8%
IL-1β [6]
  inhibition ratio of IL-1β protein content in serum: 70.1%
IL-6 [7]
  inhibition ratio of IL-6 mRNA in colon tissues: 65.0%
IL-6 [18]; high dose (10 mg/kg)
  inhibition ratio of IL-6 protein content in serum: 57.6%
IL-6 [18]; low dose (1 mg/kg)
  inhibition ratio of IL-6 protein content in serum: 34.4%
IL-6 [18]; medium dose (3 mg/kg)
  inhibition ratio of IL-6 protein content in serum: 44.5%
TAK1
  phosphorylation of TAK1: no inhibition
IL-1β [19]; high dose (10 mg/kg)
  inhibition ratio of IL-1β protein content in serum: 51.8%
IL-1β [19]; low dose (1 mg/kg)
  inhibition ratio of IL-1β protein content in serum: 40.1%
IL-1β [19]; medium dose (3 mg/kg)
  inhibition ratio of IL-1β protein content in serum: 50.0%
[8]
  colon length recovery rate (inhibition of colon shortening): 34.6%
  recovery rate of colon pathological sections (H&E): 65.6%
  DAI score inhibition ratio: 29.3%
  body weight recovery rate: 22.4%
IL-23 [9]
  inhibition ratio of IL-23 mRNA in colon tissues: 84.8%
IL-1β [20]; high dose (10 mg/kg)
  inhibition ratio of IL-1β mRNA in colon tissues: 43.8%
IL-1β [20]; low dose (1 mg/kg)
  inhibition ratio of IL-1β mRNA in colon tissues: 22.8%
IL-1β [20]; medium dose (3 mg/kg)
  inhibition ratio of IL-1β mRNA in colon tissues: 36.1%
TNF-α [10]
  inhibition ratio of TNF-α protein content in serum: 55.4%
